Measured values from US10981905B2, “Heteroaryl-substituted sulfonamide compounds and their use as therapeutic agents” (Xenon Pharmaceuticals Inc., priority 2018, dated 2021).
pIC50: −log10 of the molar value. Where a name gives a salt, the structure may show the parent alone. Read-outs that look alike come from different tables or passages of the source.

Legend:
Nav1.5 = Nav1.5 (Homo sapiens (Human), UniProt Q14524); assay: Sodium Influx Assay (Flux), Nav1.5
Nav1.1 = Nav1.1 (Homo sapiens (Human), UniProt P35498); assay: Sodium Influx Assay (Flux), Nav1.1; assay type: cell-based; conditions: Trex HEK293 cells, ANG2 dye, inactivated state
Nav1.6 = Nav1.6 (Homo sapiens (Human), UniProt Q9UQD0); assay: Sodium Influx Assay (Flux), Nav1.6; assay type: cell-based; conditions: Trex HEK293 cells, ANG2 dye, inactivated state
[1] = read-out: Flux NaV1.5 IC50, sodium influx assay, Trex HEK293 cells, ANG2 dye, inactivated state

Nav1.5, sequence (Q14524 other isoform, or with tags, fused parts or gaps): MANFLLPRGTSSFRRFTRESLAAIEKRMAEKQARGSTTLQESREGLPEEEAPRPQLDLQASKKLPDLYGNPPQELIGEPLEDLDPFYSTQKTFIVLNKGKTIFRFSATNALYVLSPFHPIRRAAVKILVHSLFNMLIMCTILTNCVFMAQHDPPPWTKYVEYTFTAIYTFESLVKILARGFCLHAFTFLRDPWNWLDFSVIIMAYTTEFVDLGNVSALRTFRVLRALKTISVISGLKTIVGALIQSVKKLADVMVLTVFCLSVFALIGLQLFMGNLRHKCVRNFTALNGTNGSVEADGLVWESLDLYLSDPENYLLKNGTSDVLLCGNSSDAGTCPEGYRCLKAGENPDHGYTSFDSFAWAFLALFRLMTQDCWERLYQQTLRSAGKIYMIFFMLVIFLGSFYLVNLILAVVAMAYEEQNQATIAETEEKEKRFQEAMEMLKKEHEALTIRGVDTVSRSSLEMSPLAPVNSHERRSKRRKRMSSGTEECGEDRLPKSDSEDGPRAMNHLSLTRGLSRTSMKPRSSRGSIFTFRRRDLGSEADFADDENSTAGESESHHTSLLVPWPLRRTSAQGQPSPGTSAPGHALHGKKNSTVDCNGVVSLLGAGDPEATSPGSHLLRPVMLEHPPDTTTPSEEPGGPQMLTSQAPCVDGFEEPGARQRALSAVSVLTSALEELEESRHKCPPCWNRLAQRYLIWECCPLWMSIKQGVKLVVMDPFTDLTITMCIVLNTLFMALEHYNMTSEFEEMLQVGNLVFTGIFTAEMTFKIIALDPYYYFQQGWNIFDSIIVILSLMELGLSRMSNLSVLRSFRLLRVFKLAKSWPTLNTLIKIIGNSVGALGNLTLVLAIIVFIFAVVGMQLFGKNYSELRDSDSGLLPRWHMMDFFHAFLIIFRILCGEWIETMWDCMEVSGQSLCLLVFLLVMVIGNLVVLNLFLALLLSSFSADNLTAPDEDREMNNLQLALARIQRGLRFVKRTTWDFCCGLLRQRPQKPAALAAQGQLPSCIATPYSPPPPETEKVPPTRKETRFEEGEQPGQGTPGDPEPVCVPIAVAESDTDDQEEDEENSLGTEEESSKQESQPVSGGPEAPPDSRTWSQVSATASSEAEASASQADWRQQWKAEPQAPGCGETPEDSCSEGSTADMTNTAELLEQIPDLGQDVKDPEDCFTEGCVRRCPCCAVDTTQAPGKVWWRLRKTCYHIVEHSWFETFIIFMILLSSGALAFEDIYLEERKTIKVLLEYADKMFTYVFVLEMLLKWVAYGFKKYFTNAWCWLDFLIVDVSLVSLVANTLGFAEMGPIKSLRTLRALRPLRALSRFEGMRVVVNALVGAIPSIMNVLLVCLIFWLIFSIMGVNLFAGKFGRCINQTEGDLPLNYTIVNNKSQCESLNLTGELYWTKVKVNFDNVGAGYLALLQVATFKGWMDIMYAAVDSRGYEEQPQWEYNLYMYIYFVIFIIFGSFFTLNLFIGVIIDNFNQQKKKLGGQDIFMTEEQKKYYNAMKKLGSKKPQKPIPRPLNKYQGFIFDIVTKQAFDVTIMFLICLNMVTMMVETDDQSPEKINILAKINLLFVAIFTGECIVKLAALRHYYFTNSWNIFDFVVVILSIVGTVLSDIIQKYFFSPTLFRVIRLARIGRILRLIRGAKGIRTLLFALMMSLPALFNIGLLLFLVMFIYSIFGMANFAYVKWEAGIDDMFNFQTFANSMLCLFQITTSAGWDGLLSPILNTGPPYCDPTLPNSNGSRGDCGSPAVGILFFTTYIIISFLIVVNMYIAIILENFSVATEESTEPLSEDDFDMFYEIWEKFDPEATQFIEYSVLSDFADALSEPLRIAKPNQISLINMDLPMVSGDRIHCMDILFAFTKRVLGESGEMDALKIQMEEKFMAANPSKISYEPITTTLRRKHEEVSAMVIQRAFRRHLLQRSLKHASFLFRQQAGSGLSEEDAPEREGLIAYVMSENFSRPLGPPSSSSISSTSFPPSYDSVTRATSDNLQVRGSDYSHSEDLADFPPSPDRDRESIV

## Cc1nc(S(=O)(=O)Nc2cscn2)c(F)cc1NCc1ccccc1CN(C)C(C)(C)C [Example 34, 5-((2-((tert-butyl(methyl)amino)methyl)benzyl)amino)-3-fluoro-6-methyl-N-(thiazol-4-yl)pyridine-2-sulfonamide formic acid salt]
Nav1.5
  pIC50: ≤ 4.52
Nav1.1
  pIC50: ≤ 4.52
Nav1.6
  pIC50: 7.43

## Cc1cc(S(=O)(=O)Nc2cccc(F)n2)ncc1NCc1c(F)cccc1CN1CCC1 [Example 9, 5-((2-(azetidin-1-ylmethyl)-6-fluorobenzyl)amino)-N-(6-fluoropyridin-2-yl)-4-methylpyridine-2-sulfonamide]
Nav1.5; [1]
  pIC50: 4.68
Nav1.1
  pIC50: 4.52
Nav1.6
  pIC50: 6.04

## Cc1nc(S(=O)(=O)Nc2cscn2)ccc1NCc1c(F)cccc1CN1CC(C)C1 [Example 24, 5-((2-fluoro-6-((3-methylazetidin-1-yl)methyl)benzyl)amino)-6-methyl-N-(thiazol-4-yl)pyridine-2-sulfonamide]
Nav1.5; [1]
  pIC50: 4.52
Nav1.1
  pIC50: 4.52
Nav1.6
  pIC50: 7.13

## O=S(=O)(Nc1cscn1)c1ccc(NCc2c(F)cccc2CN2CCCC2)c(C(F)F)n1 [Example 18, 6-(difluoromethyl)-5-((2-fluoro-6-(pyrrolidin-1-ylmethyl)benzyl)amino)-N-(thiazol-4-yl)pyridine-2-sulfonamide formic acid salt]
Nav1.5; [1]
  pIC50: 4.67
Nav1.1
  pIC50: 4.81
Nav1.6
  pIC50: 7.82

## Cc1sc(S(=O)(=O)Nc2cccc(F)n2)cc1NCc1c(F)cccc1Br [Example 23, 4-((2-bromo-6-fluorobenzyl)amino)-N-(6-fluoropyridin-2-yl)-5-methylthiophene-2-sulfonamide]
Nav1.5; [1]
  pIC50: 4.52
Nav1.1
  pIC50: 5.11
Nav1.6
  pIC50: 5.02

## Cc1nc(S(=O)(=O)Nc2cccc(F)n2)ccc1NCc1c(F)cccc1CN(C)C(C)(C)C [Example 22, 5-((2-((tert-butyl(methyl)amino)methyl)-6-fluorobenzyl)amino)-N-(6-fluoropyridin-2-yl)-6-methylpyridine-2-sulfonamide trifluoroacetic acid salt]
Nav1.5; [1]
  pIC50: 4.52
Nav1.1
  pIC50: 4.52
Nav1.6
  pIC50: 6.66

## Cc1nc(S(=O)(=O)Nc2cscn2)ccc1NCc1ccccc1CN(C)C(C)(C)C [Example 28, 5-((2-((tert-butyl(methyl)amino)methyl)benzyl)amino)-6-methyl-N-(thiazol-4-yl)pyridine-2-sulfonamide trifluoroacetic acid salt]
Nav1.5
  pIC50: ≤ 4.52
Nav1.1
  pIC50: ≤ 4.52
Nav1.6
  pIC50: 6.11

## Cc1nc(S(=O)(=O)Nc2cccc(F)n2)c(F)cc1NCc1ccccc1CN(C)C(C)(C)C [Example 32, 5-((2-((tert-butyl(methyl)amino)methyl)benzyl)amino)-3-fluoro-N-(6-fluoropyridin-2-yl)-6-methylpyridine-2-sulfonamide trifluoroacetic acid salt]
Nav1.5; [1]
  pIC50: 4.52
Nav1.1
  pIC50: 4.78
Nav1.6
  pIC50: 6.57

## Cc1cc(S(=O)(=O)Nc2cscn2)cnc1NCc1c(F)cccc1CN(C)C(C)(C)C [Example 13, 6-((2-((tert-butyl(methyl)amino)methyl)-6-fluorobenzyl)amino)-5-methyl-N-(thiazol-4-yl)pyridine-3-sulfonamide formic acid salt]
Nav1.5; [1]
  pIC50: 5.22
Nav1.1
  pIC50: 4.83
Nav1.6
  pIC50: 4.95

## Cc1nc(S(=O)(=O)Nc2cscn2)c(F)cc1NCc1c(F)cccc1CN(C)C(C)C [Example 35, 3-fluoro-5-((2-fluoro-6-((isopropyl(methyl)amino)methyl)benzyl)amino)-6-methyl-N-(thiazol-4-yl)pyridine-2-sulfonamide trifluoroacetic acid salt]
Nav1.5
  pIC50: ≤ 4.52
Nav1.1
  pIC50: 4.98
Nav1.6
  pIC50: 7.62

## O=S(=O)(Nc1cscn1)c1ccc(NCc2c(F)ccc(F)c2CN2CCCC2)n2ccnc12 [Example 44, 5-((3,6-difluoro-2-(pyrrolidin-1-ylmethyl)benzyl)amino)-N-(thiazol-4-yl)imidazo[1,2-a]pyridine-8-sulfonamide trifluoroacetic acid salt]
Nav1.5; [1]
  pIC50: 5.05
Nav1.1
  pIC50: 4.70
Nav1.6
  pIC50: 6.77

## CN(Cc1cccc(F)c1CNc1cc(F)c(S(=O)(=O)Nc2cscn2)nc1C1CC1)C(C)(C)C [Example 49, 5-((2-((tert-butyl(methyl)amino)methyl)-6-fluorobenzyl)amino)-6-cyclopropyl-3-fluoro-N-(thiazol-4-yl)pyridine-2-sulfonamide]
Nav1.5; [1]
  pIC50: 5.12
Nav1.1
  pIC50: 5.43
Nav1.6
  pIC50: 7.11

## Cc1nc(S(=O)(=O)Nc2cscn2)ccc1NCc1cccc(F)c1CN1CCC1 [Example 27, 5-((2-(azetidin-1-ylmethyl)-3-fluorobenzyl)amino)-6-methyl-N-(thiazol-4-yl)pyridine-2-sulfonamide trifluoroacetic acid salt]
Nav1.5; [1]
  pIC50: 4.52
Nav1.1
  pIC50: 4.52
Nav1.6
  pIC50: 6.53

## Cc1nc(S(=O)(=O)Nc2cscn2)ccc1NCc1c(F)cccc1CN1CCC1(C)C [Example 8, 5-((2-((2,2-dimethylazetidin-1-yl)methyl)-6-fluorobenzyl)amino)-6-methyl-N-(thiazol-4-yl)pyridine-2-sulfonamide trifluoroacetic acid salt]
Nav1.5; [1]
  pIC50: 4.52
Nav1.1
  pIC50: 4.52
Nav1.6
  pIC50: 6.14

## Cc1nc(S(=O)(=O)Nc2cscn2)ccc1NCc1c(F)cccc1CN1CC(C)(F)C1 [Example 14, 5-((2-fluoro-6-((3-fluoro-3-methylazetidin-1-yl)methyl)benzyl)amino)-6-methyl-N-(thiazol-4-yl)pyridine-2-sulfonamide]
Nav1.5; [1]
  pIC50: 4.61
Nav1.1
  pIC50: 4.89
Nav1.6
  pIC50: 6.42

## Cc1cc(S(=O)(=O)Nc2cscn2)ncc1NCc1c(F)cccc1CN1CCC1 [Example 7, 5-((2-(azetidin-1-ylmethyl)-6-fluorobenzyl)amino)-4-methyl-N-(thiazol-4-yl)pyridine-2-sulfonamide formic acid salt]
Nav1.5; [1]
  pIC50: 4.52
Nav1.1
  pIC50: 4.52
Nav1.6
  pIC50: 5.24

## C[C@H](Nc1ncc(S(=O)(=O)Nc2cscn2)cc1Cl)c1cc(Cl)ccc1F [Example 1, (S)-5-chloro-6-((1-(5-chloro-2-fluorophenyl)ethyl)amino)-N-(thiazol-4-yl)pyridine-3-sulfonamide]
Nav1.5; [1]
  pIC50: 5.25
Nav1.1
  pIC50: 5.30
Nav1.6
  pIC50: 5.55

## Cc1cc(S(=O)(=O)Nc2cccc(F)n2)sc1NCc1c(F)cccc1CN1CCCC1 [Example 43, 5-((2-fluoro-6-(pyrrolidin-1-ylmethyl)benzyl)amino)-N-(6-fluoropyridin-2-yl)-4-methylthiophene-2-sulfonamide trifluoroacetic acid salt]
Nav1.5; [1]
  pIC50: 4.99
Nav1.1
  pIC50: 5.09
Nav1.6
  pIC50: 5.68

## O=S(=O)(Nc1cscn1)c1cc(C(F)F)c(NCc2c(F)cccc2CN2CCCC2)cn1 [Example 17, 4-(difluoromethyl)-5-((2-fluoro-6-(pyrrolidin-1-ylmethyl)benzyl)amino)-N-(thiazol-4-yl)pyridine-2-sulfonamide formic acid salt]
Nav1.5; [1]
  pIC50: 4.52
Nav1.1
  pIC50: 4.52
Nav1.6
  pIC50: 5.84

## Cc1nc(S(=O)(=O)Nc2cscn2)ccc1NCc1c(F)cccc1CN(C)CC1CC1 [Example 15, 5-((2-(((cyclopropylmethyl)(methyl)amino)methyl)-6-fluorobenzyl)amino)-6-methyl-N-(thiazol-4-yl)pyridine-2-sulfonamide formic acid salt]
Nav1.5; [1]
  pIC50: 4.67
Nav1.1
  pIC50: 4.52
Nav1.6
  pIC50: 6.54

## O=S(=O)(Nc1cscn1)c1ccc(NCc2c(F)cccc2CN2CCC2)nc1 [Example 5, 6-((2-(azetidin-1-ylmethyl)-6-fluorobenzyl)amino)-N-(thiazol-4-yl)pyridine-3-sulfonamide]
Nav1.5; [1]
  pIC50: 4.58
Nav1.1
  pIC50: 4.52
Nav1.6
  pIC50: 5.07

## Cc1nc(S(=O)(=O)Nc2cscn2)c(F)cc1NCc1c(F)ccc(F)c1Br [Example 36, 5-((2-bromo-3,6-difluorobenzyl)amino)-3-fluoro-6-methyl-N-(thiazol-4-yl)pyridine-2-sulfonamide trifluoroacetic acid salt]
Nav1.5; [1]
  pIC50: 4.52
Nav1.1
  pIC50: 6.61
Nav1.6
  pIC50: 6.06

## Cc1c(NCc2c(F)cccc2CN(C)C(C)C)cnc(S(=O)(=O)Nc2cccc(F)n2)c1F [Example 45, 3-fluoro-5-((2-fluoro-6-((isopropyl(methyl)amino)methyl)benzyl)amino)-N-(6-fluoropyridin-2-yl)-4-methylpyridine-2-sulfonamide]
Nav1.5; [1]
  pIC50: 4.52
Nav1.1
  pIC50: 4.52
Nav1.6
  pIC50: 5.72

## Cc1nc(S(=O)(=O)Nc2cscn2)ccc1N[C@@H](C)c1ccccc1F [Example 3, (S)-5-((1-(2-fluorophenyl)ethyl)amino)-6-methyl-N-(thiazol-4-yl)pyridine-2-sulfonamide]
Nav1.5; [1]
  pIC50: 4.52
Nav1.1
  pIC50: 4.52
Nav1.6
  pIC50: 5.32

## Cc1nc(S(=O)(=O)Nc2cscn2)ccc1NCc1c(F)cccc1CN1CCCC1 [Example 30, 5-((2-fluoro-6-(pyrrolidin-1-ylmethyl)benzyl)amino)-6-methyl-N-(thiazol-4-yl)pyridine-2-sulfonamide trifluoroacetic acid salt]
Nav1.5; [1]
  pIC50: 4.52
Nav1.1
  pIC50: 4.52
Nav1.6
  pIC50: 6.95

## Cc1nc(S(=O)(=O)Nc2cscn2)c(F)cc1NCc1cccc(C(F)(F)F)c1CN1C2CCC1CC2 [Example 37, 5-((2-((7-azabicyclo[2.2.1]heptan-7-yl)methyl)-3-(trifluoromethyl)benzyl)amino)-3-fluoro-6-methyl-N-(thiazol-4-yl)pyridine-2-sulfonamide trifluoroacetic acid salt]
Nav1.5
  pIC50: ≤ 4.52
Nav1.1
  pIC50: 5.06
Nav1.6
  pIC50: 5.23

## O=S(=O)(Nc1cscn1)c1cc(C(F)(F)F)c(NCc2c(F)cccc2CN2CCC2)cn1 [Example 31, 5-((2-(azetidin-1-ylmethyl)-6-fluorobenzyl)amino)-N-(thiazol-4-yl)-4-(trifluoromethyl)pyridine-2-sulfonamide]
Nav1.5; [1]
  pIC50: 4.52
Nav1.1
  pIC50: 4.52
Nav1.6
  pIC50: 5.82
